Assay results published in patent publication US9487489B2, “Halogen-substituted pyrazole derivatives as pest-control agents” (BAYER CROPSCIENCE AKTIENGESELLSCHAFT, priority 2013, dated 2016).

Legend:
[1] = logP determination by HPLC on a reversed-phase column (C18), EEC Directive 79/831 Annex V.A8; type: physicochemical
Method in brief: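 Per EEC 79/831 Annex V.A8, values derive from HPLC retention at 2.0 ml/min and 55° C on a 50*4.6 C18 column. The 10→95% acetonitrile gradient (0.1%/0.09% formic acid) lasted 4.25 min plus a 1.25 min hold; mass detection was by MSD.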

[2] = tested on: cattle ticks (Boophilus microplus) Parkhurst strain, SP-resistant; assay: Boophilus microplus dip test (BOOPMI Dip); type: in vivo; settings: application rate 100 ppm, assessed after 7 days
Method in brief: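 Adult engorged female SP-resistant Parkhurst ticks (8–10) were fully immersed in compound diluted in water from a DMSO solution, then kept in a climate-controlled room. After 7 days, fertile egg-laying was scored, with larval hatching checked at about 42 days; 100% efficacy means no fertile eggs.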

[3] = tested on: engorged adult female cattle ticks (Boophilus microplus); assay: Boophilus microplus injection test (BOOPMI Inj); type: in vivo; settings: application rate 20 μg/animal; injection into abdomen; assessed after 7 days
Method in brief: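 Efficacy is read at 7 days as fertile egg laying (100% = no fertile eggs laid; 0% = all eggs fertile), with eggs of unclear fertility stored until larvae hatch at about 42 days. Five engorged adult females per dose each receive an abdominal injection of 1 μl compound dissolved in DMSO.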

[4] = tested on: adult cat fleas (Ctenocephalides felis); assay: Ctenocephalides felis oral test (CTECFE); type: in vivo; settings: application rate 100 ppm in citrated cattle blood; after 2 days
Method in brief: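 Mortality read at 2 days as percent of fleas killed. Compound predissolved in DMSO, diluted into citrated cattle blood and offered to roughly 20 unfed adult C. felis via parafilm membrane feeder.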

[5] = tested on: adult houseflies (Musca domestica); assay: Musca domestica test (MUSCDO); type: in vivo; settings: application rate 100 ppm; after 2 days
Method in brief: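 Groups of 10 adult Musca domestica exposed to a sugar-soaked sponge treated with the water-diluted DMSO preparation of compound at the chosen concentration. Percent kill read at day 2, where 0% means no flies killed and 100% all killed.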

[6] = tested on: larvae of the mustard beetle (Phaedon cochleariae); assay: Phaedon cochleariae spray test (PHAECO); type: in vivo; settings: Chinese cabbage leaf discs, after 7 days
Method in brief: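 Kill of mustard beetle larvae is read as % mortality 7 days after spraying. Spray liquid: active compound in acetone plus dimethylformamide, brought up with water holding 1000 ppm alkylaryl polyglycol ether emulsifier and diluted further in emulsifier-water.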

[7] = tested on: caterpillars of the armyworm (Spodoptera frugiperda); assay: Spodoptera frugiperda spray test (SPODFR); type: in vivo; settings: maize leaf discs, after 7 days
Method in brief: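 Percent kill read at day 7 on caterpillar-infested maize leaf discs. Discs were first sprayed with aqueous emulsifier-containing (1000 ppm) preparations made from acetone/dimethylformamide solutions, and dried. Scale: 0% none dead, 100% all dead.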

[8] = tested on: adult castor bean ticks (Ixodes ricinus); assay: Ixodes ricinus in vitro contact test with adult castor bean ticks (T3); settings: after 48 h
Method in brief: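 Test compound was dissolved in acetone p.a. (9 mg in 1 ml) and diluted with acetone; 250 μl were spread evenly over the inner walls and floor of 25 ml test tubes by rocking on an orbital shaker (2 h, 30 rpm). Once the solvent evaporated, 5-10 adult Ixodes ricinus ticks were added, tubes closed with perforated lids and kept horizontally in darkness at 22° C. and 90% humidity. After 48 h, ticks were placed on a 45-50° C. hotplate for up to 5 min; those motionless or unable to climb away were scored dead or moribund.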

[9] = tested on: bont tick nymphs (Amblyomma hebraeum); settings: after 48 h

Cn1nc(C(F)(F)C(F)(F)F)c(C(F)(F)F)c1-n1cc(-c2ccc(Cl)c(C(=O)NC3(C#N)CC3)c2)cn1 [Ic-2]
logP ([1]; HPLC on reversed-phase column (C18), acetonitrile/water with formic acid, EEC Directive 79/831 Annex V.A8): 3.72 | efficacy (laying of fertile eggs) [2]: 100% | efficacy (laying of fertile eggs) [3]: 100% | efficacy (kill in %) [4]: 100% | efficacy (kill in %) [5]: 100% | efficacy in % ([6]; application rate 100 g/ha): 100% | efficacy in % ([7]; application rate 100 g/ha): 100% | efficacy (dead or moribund ticks) ([8]; application rate 1 μg/cm^2): 100% | efficacy (dead or moribund ticks) ([8]; application rate 5 μg/cm^2): 100% | efficacy (dead or moribund ticks) [9]: 100%

Cn1nc(C(F)(F)C(F)(F)F)c(C(F)(F)F)c1-n1cc(-c2ccc(Cl)c(C(=O)NC3CC3)c2)cn1 [Ic-1, 2-Chloro-N-cyclopropyl-5-[2′-methyl-5′-(pentafluoroethyl)-4′-(trifluoromethyl)-2′H-1,3′-bipyrazol-4-yl]benzamide]
chromatographic logP [1]: 3.79 | efficacy (laying of fertile eggs) [2]: 100% | efficacy (laying of fertile eggs) [3]: 100% | efficacy (kill in %) [4]: 100% | efficacy (kill in %) [5]: 100% | efficacy in % ([6]; application rate 500 g/ha): 100% | efficacy in % ([7]; application rate 500 g/ha): 100% | efficacy (dead or moribund ticks) ([8]; application rate 1 μg/cm^2): 100% | efficacy (dead or moribund ticks) ([8]; application rate 5 μg/cm^2): 100% | efficacy (dead or moribund ticks) [9]: 100%
